The source of these data is ChEMBL document CHEMBL5143714, “Discovery of BMS-986339, a Pharmacologically Differentiated Farnesoid X Receptor Agonist for the Treatment of Nonalcoholic Steatohepatitis” (J Med Chem, 2022).

One data set addresses Cytochrome P450 2D6 (Homo sapiens, UniProt P10635). The experiment in a line: Inhibition of CYP2D6 in human liver microsomes using fluorogenic substrate preincubated for 15 min followed by NADPH addition measured after 2 hrs by fluorescence based assay. It counts as ADME, Microsome.
Data set [1] has as its target T1, Bile acid receptor (Homo sapiens, UniProt Q96RI1).
T1 sequence (Q96RI1 whole entry): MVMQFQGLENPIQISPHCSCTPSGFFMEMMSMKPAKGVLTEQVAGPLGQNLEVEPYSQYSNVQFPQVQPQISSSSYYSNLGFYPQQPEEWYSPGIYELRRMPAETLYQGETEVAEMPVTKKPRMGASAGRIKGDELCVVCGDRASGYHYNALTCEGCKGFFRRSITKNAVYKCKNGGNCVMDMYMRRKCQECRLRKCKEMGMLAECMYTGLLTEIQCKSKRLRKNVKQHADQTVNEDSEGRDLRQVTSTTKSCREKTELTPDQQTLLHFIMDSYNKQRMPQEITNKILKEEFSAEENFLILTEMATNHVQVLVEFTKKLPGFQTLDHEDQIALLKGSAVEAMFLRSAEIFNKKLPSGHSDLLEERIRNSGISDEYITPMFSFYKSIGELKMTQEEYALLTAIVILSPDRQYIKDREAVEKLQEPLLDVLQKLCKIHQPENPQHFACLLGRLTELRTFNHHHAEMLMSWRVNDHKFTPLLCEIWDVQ
The experiment in a line: Agonist activity at LBD fused human FXR in HEK293 cells incubated for 30 min by envision plate reader method. The format is cell-based.

Data set [2] concerns the target T2, Bile acid receptor (Mus musculus) (UniProt Q60641).
T2 sequence (whole entry): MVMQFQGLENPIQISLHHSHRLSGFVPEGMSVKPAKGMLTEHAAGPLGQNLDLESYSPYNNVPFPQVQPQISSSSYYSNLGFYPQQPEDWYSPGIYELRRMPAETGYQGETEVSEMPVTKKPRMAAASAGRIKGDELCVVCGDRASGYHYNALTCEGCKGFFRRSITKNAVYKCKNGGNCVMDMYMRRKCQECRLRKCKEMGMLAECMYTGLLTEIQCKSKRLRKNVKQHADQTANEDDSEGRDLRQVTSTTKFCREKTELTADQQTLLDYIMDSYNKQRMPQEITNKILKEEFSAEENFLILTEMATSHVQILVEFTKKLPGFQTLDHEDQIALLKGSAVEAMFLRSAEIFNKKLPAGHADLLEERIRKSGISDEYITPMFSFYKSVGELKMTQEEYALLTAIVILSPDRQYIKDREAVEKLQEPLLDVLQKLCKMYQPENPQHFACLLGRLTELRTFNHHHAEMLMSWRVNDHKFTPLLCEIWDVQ
Put plainly: Agonist activity at LBD-fused mouse FXR in HEK293 cells incubated for 30 min by envision plate reader method relative to GW2064. It counts as cell-based. To be noted: filed as agonist.

Data set [3] is described as follows: Volume of distribution at steady state in Sprague-Dawley rat at 1 mg/kg, iv. It counts as ADME, organism-based. The settings on record: in vivo, read-out: Vdss.
Data set [4] in a line: Clearance in Sprague-Dawley rat at 1 mg/kg, iv. It counts as ADME, organism-based. The settings on record: in vivo.
Data set [5] can be described thus: AUC (total) in Sprague-Dawley rat at 2 mg/kg, po. It counts as ADME, organism-based. Further details: dose 2 mg/kg, route po. To be noted: in vivo.
Data set [6] is described as follows: Oral bioavailability in Sprague-Dawley rat at 2 mg/kg. The format is ADME, organism-based. The settings on record: in vivo.
The test system of data set [7] is Bile acid receptor (Homo sapiens). Put plainly: Agonist activity at human FXR expressed in HEK293 cells coexpressing IBABP relative to GW2064. To be noted: filed as agonist.
Data set [8] can be described thus: AUC (total) in C57BL6 mouse at 5 mg/kg, po. Also noted: dose 5 mg/kg, route po. The settings on record: in vivo. The format is ADME, organism-based.
For data set [9], the target named is T3, Bile acid receptor (Mus musculus, UniProt Q60641).
T3 sequence (Q60641 whole entry): T2 sequence (whole entry)
The experiment in a line: Agonist activity at mouse LBD fused FXR in HEK293 cells incubated for 30 min by envision plate reader method. The format is cell-based.

A short description of data set [10]: AUC (total) in Sprague-Dawley rat at 1 mg/kg, iv. It counts as ADME, organism-based. Further details: dose 1 mg/kg, route iv. The settings on record: in vivo.
In another data set the test system is Mus musculus. The experiment in a line: Antifibrotic activity against bile duct ligation-induced liver cholestasis C57BL/6NTac mouse model assessed as reduction in collagen level administered orally as single dose for 9 days and measured after 24 hrs post-last dose by picrosirius red staining method. The format is functional, organism-based. The settings on record: dose 0.3-10 mg/kg, route po, time 9.0 day, DDE = dose-dependent effect.

The nature of data set [11]: Genotoxicity in Salmonella typhimurium by Ames test. The format is toxicity. The settings on record: salmonella enterica subsp. enterica serovar typhimurium.
The target of data set [12] is T4, Bile acid receptor (Homo sapiens) (UniProt Q96RI1).
T4 sequence (whole entry): T1 sequence (Q96RI1 whole entry)
The experiment in a line: Agonist activity at LBD-fused human FXR in HEK293 cells incubated for 30 min by envision plate reader method relative to GW2064. The format is cell-based. The settings on record: filed as agonist.

Data set [13] is described as follows: Half life in C57BL6 mouse at 1 mg/kg, iv. The format is ADME, organism-based. To be noted: in vivo.
The target of data set [14] is T5, Solute carrier organic anion transporter family member 1B3 (Homo sapiens, UniProt Q9NPD5).
T5 sequence (Q9NPD5 whole entry): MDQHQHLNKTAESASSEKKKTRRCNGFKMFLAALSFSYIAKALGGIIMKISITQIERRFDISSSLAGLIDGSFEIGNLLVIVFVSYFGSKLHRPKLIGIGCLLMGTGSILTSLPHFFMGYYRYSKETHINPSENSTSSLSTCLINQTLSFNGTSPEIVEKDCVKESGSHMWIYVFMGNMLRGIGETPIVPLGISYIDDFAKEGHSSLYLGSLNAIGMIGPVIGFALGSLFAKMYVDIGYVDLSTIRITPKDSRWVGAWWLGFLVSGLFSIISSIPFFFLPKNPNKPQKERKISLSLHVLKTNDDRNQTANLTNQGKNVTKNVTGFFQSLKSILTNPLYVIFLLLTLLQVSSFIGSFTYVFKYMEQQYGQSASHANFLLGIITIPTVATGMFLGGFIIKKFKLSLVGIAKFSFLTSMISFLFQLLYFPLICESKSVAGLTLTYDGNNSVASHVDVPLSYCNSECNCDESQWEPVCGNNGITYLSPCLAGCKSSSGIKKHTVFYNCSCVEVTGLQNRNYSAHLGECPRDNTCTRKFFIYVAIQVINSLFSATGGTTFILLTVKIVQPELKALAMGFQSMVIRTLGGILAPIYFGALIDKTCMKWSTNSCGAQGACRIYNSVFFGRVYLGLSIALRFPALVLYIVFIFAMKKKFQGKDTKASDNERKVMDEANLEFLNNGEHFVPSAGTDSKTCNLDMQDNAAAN
Put plainly: Inhibition of OATP1B3 (unknown origin).

Cytochrome P450 2D6, sequence (P10635 whole entry): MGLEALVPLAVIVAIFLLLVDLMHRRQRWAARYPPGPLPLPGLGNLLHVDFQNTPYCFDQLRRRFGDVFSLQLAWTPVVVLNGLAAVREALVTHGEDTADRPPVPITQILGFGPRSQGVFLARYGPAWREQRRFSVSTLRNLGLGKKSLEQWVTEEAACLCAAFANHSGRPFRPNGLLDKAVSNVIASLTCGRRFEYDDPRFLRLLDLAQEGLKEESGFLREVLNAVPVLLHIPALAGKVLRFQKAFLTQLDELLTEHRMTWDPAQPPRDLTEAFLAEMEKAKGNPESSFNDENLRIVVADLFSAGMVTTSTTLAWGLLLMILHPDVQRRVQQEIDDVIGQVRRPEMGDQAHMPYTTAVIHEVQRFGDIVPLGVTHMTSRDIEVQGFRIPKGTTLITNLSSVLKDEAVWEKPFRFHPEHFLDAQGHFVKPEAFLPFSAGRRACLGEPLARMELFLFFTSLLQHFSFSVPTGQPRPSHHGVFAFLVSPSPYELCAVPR

As to `CC(C)(O)c1ccc(-c2cccc(N(CC34CCC(c5noc(C(C)(C)F)n5)(CC3)CC4)C(=O)[C@H]3C[C@](O)(C(F)(F)F)C3)c2)cc1`, the IC50 on Cytochrome P450 2D6 is greater than 20 µM; in data set [14], 13.5 µM. The values for the EC50 at Bile acid receptor [1] and at Bile acid receptor [9] were 0.042 µM and 0.014 µM, respectively. Moreover, the maximal response (Emax) in data set [2] was determined as 601%; in [7], 80%; in data set [12], 189%. Also, the Vd in data set [3] came to 5.2 L/kg. In data set [4], this compound had a clearance of 0.24 L/h/kg. For the same compound, the AUC is 5.8 µM·h in data set [5], 56.6 µM·h in data set [8] and 6.6 µM·h in data set [10]. The bioavailability in data set [6] worked out at 40%. Moreover, the results for the Activity entry (with Mus musculus; in data set [11]) were “Dde” and “Non-Toxic”, respectively. This compound also had a half-life in [13] of 16 h.
